# Experimental data published in patent publication US5510332A, “Process to inhibit binding of the integrin α4 62 1 to VCAM-1 or fibronectin and linear peptides therefor” (priority 1994, dated 1996).
# Where no end group is shown, it is not given here.
# Target: T1, binding of the integrin α4 β1 to VCAM (Homo sapiens, UniProt P05556+P13612)
# T1 construct: endogenous in cells; host or cells: Ramos (human B-cell line) for endogenous α4β1; CHO cells stably transfected with human VCAM cDNA for the counter-receptor
# Test: Cell-cell assay: 35S-labelled Ramos cells binding to VCAM expressing CHO cells
# Format: cell-based
# Conditions: single concentration at which SEQ ID NO:9 gives approximately 50% inhibition of adhesion; SEQ ID NO:9 = 1.00; >2.00 indicates little or no inhibition of VCAM-α4 β1 binding
# Source text: The VCAM-1 binding assays involved assessing the ability of cells that express α4 β1 to bind cells expressing VCAM (cell-cell assay) or to bind purified VCAM protein (cell-protein assay). The integrin-expressing cell types used in these assays included the human B-cell line, Ramos, and the human promyelocytic line, HL-60. The cell-cell assay was used to compare the relative potency of peptides at a single dose. The cell-protein assay was used to generate dose response curves and determine IC50 values. A human VCAM cDNA was amplified by the polymerase chain reaction (PCR) from cDNA reverse transcribed from RNA isolated from human umbilical vein endothelial cells. The VCAM cDNA was ligated into a mammalian expression vector and electroporated into chinese hamster ovary (CHO) cells. Cells were grown in G418 selective media and clones expressing high levels of VCAM were selected by FACS analysis. VCAM expressing CHO cells and nontransfected CHO cells were plated in 48 well cluster dishes at a density of 50,000 cells/well 24 hour prior to assay. The dishes were washed with binding buffer (DMEM, 1% BSA, 1.0 mM MnCl2, 0.02% sodium azide, pH 7.4) immediately prior to assay. […] Unbound cells were removed by washing with binding buffer and the remaining bound cells were lysed with 50 mM Tris, pH 8.0, 150 mM NaCl, 1% SDS and transferred to scintillation vials for quantitation.
# T1 sequence (P13612 34-1032): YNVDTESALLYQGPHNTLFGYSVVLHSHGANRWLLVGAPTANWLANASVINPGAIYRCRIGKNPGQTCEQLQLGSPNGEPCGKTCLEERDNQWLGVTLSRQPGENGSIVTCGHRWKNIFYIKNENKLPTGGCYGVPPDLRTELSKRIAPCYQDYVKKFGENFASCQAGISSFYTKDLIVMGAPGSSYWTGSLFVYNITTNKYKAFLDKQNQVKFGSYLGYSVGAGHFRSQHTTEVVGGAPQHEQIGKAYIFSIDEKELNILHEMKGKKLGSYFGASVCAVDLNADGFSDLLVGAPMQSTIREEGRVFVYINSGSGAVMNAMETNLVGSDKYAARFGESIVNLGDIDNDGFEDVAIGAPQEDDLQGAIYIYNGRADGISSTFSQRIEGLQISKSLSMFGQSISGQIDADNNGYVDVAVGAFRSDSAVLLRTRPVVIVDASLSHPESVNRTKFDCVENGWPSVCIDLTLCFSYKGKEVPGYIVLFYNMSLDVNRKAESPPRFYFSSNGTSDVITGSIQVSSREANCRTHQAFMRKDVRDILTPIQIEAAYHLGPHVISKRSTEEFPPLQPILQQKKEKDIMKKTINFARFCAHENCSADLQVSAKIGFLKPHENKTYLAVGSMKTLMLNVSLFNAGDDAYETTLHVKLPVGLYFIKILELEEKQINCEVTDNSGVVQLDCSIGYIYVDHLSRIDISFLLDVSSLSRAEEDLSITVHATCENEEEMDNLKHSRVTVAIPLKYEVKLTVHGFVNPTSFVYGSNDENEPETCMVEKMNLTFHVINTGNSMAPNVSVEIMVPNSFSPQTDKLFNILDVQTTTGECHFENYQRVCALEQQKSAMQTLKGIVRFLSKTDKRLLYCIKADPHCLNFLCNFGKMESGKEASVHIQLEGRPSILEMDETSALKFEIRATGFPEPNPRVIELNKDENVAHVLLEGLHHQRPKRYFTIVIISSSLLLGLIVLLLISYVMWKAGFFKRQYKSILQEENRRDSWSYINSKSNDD
# T1 sequence (P05556 21-798): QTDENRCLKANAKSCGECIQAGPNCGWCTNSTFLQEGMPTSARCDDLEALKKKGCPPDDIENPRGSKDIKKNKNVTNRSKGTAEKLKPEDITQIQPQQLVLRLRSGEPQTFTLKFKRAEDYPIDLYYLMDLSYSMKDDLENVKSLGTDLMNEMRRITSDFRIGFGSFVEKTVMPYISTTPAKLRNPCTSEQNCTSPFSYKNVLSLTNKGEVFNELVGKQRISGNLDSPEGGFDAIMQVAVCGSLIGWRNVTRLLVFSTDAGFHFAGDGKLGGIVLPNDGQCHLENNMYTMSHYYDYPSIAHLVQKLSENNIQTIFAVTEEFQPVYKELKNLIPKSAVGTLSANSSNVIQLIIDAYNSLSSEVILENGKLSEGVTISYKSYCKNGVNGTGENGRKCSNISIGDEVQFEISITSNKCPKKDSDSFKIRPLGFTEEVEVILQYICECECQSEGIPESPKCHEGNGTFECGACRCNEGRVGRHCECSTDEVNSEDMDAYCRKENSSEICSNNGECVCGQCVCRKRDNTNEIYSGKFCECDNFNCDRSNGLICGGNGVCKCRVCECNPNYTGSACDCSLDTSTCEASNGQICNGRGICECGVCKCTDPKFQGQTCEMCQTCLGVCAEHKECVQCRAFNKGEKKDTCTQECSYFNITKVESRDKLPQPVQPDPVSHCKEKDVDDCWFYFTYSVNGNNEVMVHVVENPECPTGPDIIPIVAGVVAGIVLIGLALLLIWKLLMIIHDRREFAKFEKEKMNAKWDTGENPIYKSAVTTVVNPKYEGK
row,Substance,relative quantity of adhered cells in relationship to peptide SEQ ID NO:9
1,"GPAWLDVP-NH2 [SEQ ID NO:9 E→A, Gly-Pro-Ala-Trp-Leu-Asp-Val-Pro-amide]",1.47
2,"GPEWLDFP-NH2 [SEQ ID NO:9 V→F, Gly-Pro-Glu-Trp-Leu-Asp-Phe-Pro-amide]",1.13
3,"GPEWLDWP-NH2 [SEQ ID NO:9 V→W, Gly-Pro-Glu-Trp-Leu-Asp-Trp-Pro-amide]",1.08
4,"GPEWLPVP-NH2 [SEQ ID NO:9 D→P, Gly-Pro-Glu-Trp-Leu-Pro-Val-Pro-amide]",2.19
5,GPEWLDSP-NH2 [SEQ ID NO:9 V→S],1.54
6,"GPLWLDVP-NH2 [SEQ ID NO:9 E→L, Gly-Pro-Leu-Trp-Leu-Asp-Val-Pro-amide]",1.62
7,"GPKWLDVP-NH2 [SEQ ID NO:9 E→K, Gly-Pro-Lys-Trp-Leu-Asp-Val-Pro-amide]",1.34
8,"GPWWLDVP-NH2 [SEQ ID NO:9 E→W, Gly-Pro-Trp-Trp-Leu-Asp-Val-Pro-amide]",1.17
9,"GPDWLDVP-NH2 [SEQ ID NO:9 E→D, Gly-Pro-Asp-Trp-Leu-Asp-Val-Pro-amide]",1.54
10,GPEWLDIP-NH2 [SEQ ID NO:9 V→I],1.81
11,"GPEWLMVP-NH2 [SEQ ID NO:9 D→M, Gly-Pro-Glu-Trp-Leu-Met-Val-Pro-amide]",1.76
12,"GPNWLDVP-NH2 [SEQ ID NO:9 E→N, Gly-Pro-Asn-Trp-Leu-Asp-Val-Pro-amide]",0.94
13,GPEWLDMP-NH2 [SEQ ID NO:9 V→M],2.46
14,GPEWLDGP-NH2 [SEQ ID NO:9 V→G],1.67
15,GPEWLDLP-NH2 [SEQ ID NO:9 V→L],1.54
16,"GPCWLDVP-NH2 [SEQ ID NO:9 E→C, Gly-Pro-Cys-Trp-Leu-Asp-Val-Pro-amide]",1.49
17,GPEWLDPP-NH2 [SEQ ID NO:9 V→P],2.45
18,"GPEWLDDP-NH2 [SEQ ID NO:9 V→D, Gly-Pro-Glu-Trp-Leu-Asp-Asp-Pro-amide]",2.39
19,"GPRWLDVP-NH2 [SEQ ID NO:9 E→R, Gly-Pro-Arg-Trp-Leu-Asp-Val-Pro-amide]",1.52
20,"GPEWLEVP-NH2 [SEQ ID NO:9 D→E, Gly-Pro-Glu-Trp-Leu-Glu-Val-Pro-amide]",1.77
21,"GPYWLDVP-NH2 [SEQ ID NO:9 E→Y, Gly-Pro-Tyr-Trp-Leu-Asp-Val-Pro-amide]",0.96
22,GPEWLDNP-NH2 [SEQ ID NO:9 V→N],2.31
23,GPEWLDHP-NH2 [SEQ ID NO:9 V→H],1.77
24,"GPEWLRVP-NH2 [SEQ ID NO:9 D→R, Gly-Pro-Glu-Trp-Leu-Arg-Val-Pro-amide]",2.14

row,Substance,relative quantity of adhered cells in relationship to peptide SEQ ID NO:9
1,"GPEWLDYP-NH2 [SEQ ID NO:9 V→Y, Gly-Pro-Glu-Trp-Leu-Asp-Tyr-Pro-amide]",0.80
2,"GPHWLDVP-NH2 [SEQ ID NO:9 E→H, Gly-Pro-His-Trp-Leu-Asp-Val-Pro-amide]",1.23
3,"GPGWLDVP-NH2 [SEQ ID NO:9 E→G, Gly-Pro-Gly-Trp-Leu-Asp-Val-Pro-amide]",1.33
4,"GPEWLCVP-NH2 [SEQ ID NO:9 D→C, Gly-Pro-Glu-Trp-Leu-Cys-Val-Pro-amide]",1.78
5,"GPEWLFVP-NH2 [SEQ ID NO:9 D→F, Gly-Pro-GluoTrp-Leu-Phe-Val-Pro-amide]",1.94
6,"GPVWLDVP-NH2 [SEQ ID NO:9 E→V, Gly-Pro-Val-Trp-Leu-Asp-Val-Pro-amide]",1.04
7,"GPEALDVP-NH2 [SEQ ID NO:9 W→A, Gly-Pro-Glu-Ala-Leu-Asp-Val-Pro-amide]",1.64
8,"GPTWLDVP-NH2 [SEQ ID NO:9 E→T, Gly-Pro-Thr-Trp-Leu-Asp-Val-Pro-amide]",0.98
9,"GPIWLDVP-NH2 [SEQ ID NO:9 E→I, Gly-Pro-Ile-Trp-Leu-Asp-Val-Pro-amide]",1.44
10,"GPMWLDVP-NH2 [SEQ ID NO:9 E→M, Gly-Pro-Met-Trp-Leu-Asp-Val-Pro-amide]",1.42
11,"GPEWLHVP-NH2 [SEQ ID NO:9 D→H, Gly-Pro-Glu-Trp-Leu-His-Val-Pro-amide]",1.74
12,GPEWLDRP-NH2 [SEQ ID NO:9 V→R],1.52
13,"GPECLDVP-NH2 [SEQ ID NO:9 W→C, Gly-Pro-Glu-Cys-Leu-Asp-Val-Pro-amide]",1.45
14,GPEWLDKP-NH2 [SEQ ID NO:9 V→K],2.68
15,"GPSWLDVP-NH2 [SEQ ID NO:9 E→S, Gly-Pro-Ser-Trp-Leu-Asp-Val-Pro-amide]",0.85
16,"GPEWLQVP-NH2 [SEQ ID NO:9 D→Q, Gly-Pro-Glu-Trp-Leu-Gln-Val-Pro-amide]",2.35
17,"GPFWLDVP-NH2 [SEQ ID NO:9 E→F, Gly-Pro-Phe-Trp-Leu-Asp-Val-Pro-amide]",1.64
18,"GPEWLDEP-NH2 [SEQ ID NO:9 V→E, Gly-Pro-Glu-Trp-Leu-Asp-Glu-Pro-amide]",2.33
19,GPEWLDQP-NH2 [SEQ ID NO:9 V→Q],1.97
20,"GPPWLDVP-NH2 [SEQ ID NO:9 E→P, Gly-Pro-Pro-Trp-Leu-Asp-Val-Pro-amide]",0.98
21,"GPEDLDVP-NH2 [SEQ ID NO:9 W→D, Gly-Pro-Glu-Asp-Leu-Asp-Val-Pro-amide]",1.62
22,"GPEWLKVP-NH2 [SEQ ID NO:9 D→K, Gly-Pro-Glu-Trp-Leu-Lys-Val-Pro-amide]",1.74
23,"GPQWLDVP-NH2 [SEQ ID NO:9 E→Q, Gly-ProoGln-Trp-Leu-Asp-Val-Pro-amide]",0.93
